Assay: xn = mol fraction of the nth substance listed
Conditions: Gas, Oscillating disk viscometry

FC(F)C(F)(F)F [pentafluoroethane] + CCC
Conditions | viscosity [mPa·s]
373.15 K, 3429.9 kPa, x1 = 0.5011 | 0.01593
373.15 K, 3613.1 kPa, x1 = 0.5011 | 0.01624
373.15 K, 3684.6 kPa, x1 = 0.7503 | 0.01798
373.15 K, 3737.3 kPa, x1 = 0.5011 | 0.01642
373.15 K, 3960.9 kPa, x1 = 0.5011 | 0.01685
373.15 K, 3969.4 kPa, x1 = 0.7503 | 0.01855
373.15 K, 4171.6 kPa, x1 = 0.5011 | 0.0173
373.15 K, 4227.4 kPa, x1 = 0.7503 | 0.01913
373.15 K, 4377 kPa, x1 = 0.5011 | 0.01777
373.15 K, 4411 kPa, x1 = 0.7503 | 0.01964
373.15 K, 4576.1 kPa, x1 = 0.5011 | 0.01833
373.15 K, 4607.7 kPa, x1 = 0.7503 | 0.02019
373.15 K, 4760.3 kPa, x1 = 0.5011 | 0.01889
373.15 K, 4816.2 kPa, x1 = 0.7503 | 0.02092
373.15 K, 4878.3 kPa, x1 = 0.5011 | 0.01931
373.15 K, 5001.8 kPa, x1 = 0.7503 | 0.0217
373.15 K, 5157.2 kPa, x1 = 0.7503 | 0.02229
373.15 K, 5305.9 kPa, x1 = 0.7503 | 0.02305
398.15 K, 101.4 kPa, x1 = 0.5011 | 0.01447
398.15 K, 101.8 kPa, x1 = 0.7503 | 0.01589
398.15 K, 200.6 kPa, x1 = 0.5011 | 0.01454
398.15 K, 262.5 kPa, x1 = 0.7503 | 0.01594
398.15 K, 348.4 kPa, x1 = 0.5011 | 0.01457
398.15 K, 488.6 kPa, x1 = 0.7503 | 0.01602
398.15 K, 541 kPa, x1 = 0.5011 | 0.01463
398.15 K, 733.4 kPa, x1 = 0.7503 | 0.01606
398.15 K, 783.2 kPa, x1 = 0.5011 | 0.01467
398.15 K, 977 kPa, x1 = 0.7503 | 0.01615
398.15 K, 1028.7 kPa, x1 = 0.5011 | 0.01479
398.15 K, 1218.3 kPa, x1 = 0.7503 | 0.01622
398.15 K, 1272.7 kPa, x1 = 0.5011 | 0.01488
398.15 K, 1476.6 kPa, x1 = 0.7503 | 0.01635
398.15 K, 1520 kPa, x1 = 0.5011 | 0.01497
398.15 K, 1712.5 kPa, x1 = 0.7503 | 0.01647
398.15 K, 1748.1 kPa, x1 = 0.5011 | 0.01511
398.15 K, 1944.3 kPa, x1 = 0.7503 | 0.01666
398.15 K, 2037 kPa, x1 = 0.5011 | 0.01521
398.15 K, 2176.8 kPa, x1 = 0.7503 | 0.01672
398.15 K, 2274.1 kPa, x1 = 0.5011 | 0.0154
398.15 K, 2388.9 kPa, x1 = 0.7503 | 0.01694
398.15 K, 2490.3 kPa, x1 = 0.5011 | 0.01548
398.15 K, 2622.4 kPa, x1 = 0.7503 | 0.01715
398.15 K, 2777.4 kPa, x1 = 0.5011 | 0.01568
398.15 K, 2888.9 kPa, x1 = 0.7503 | 0.01734
398.15 K, 3059.7 kPa, x1 = 0.5011 | 0.01592
398.15 K, 3178.3 kPa, x1 = 0.7503 | 0.01765
398.15 K, 3336.8 kPa, x1 = 0.5011 | 0.01626
398.15 K, 3405.7 kPa, x1 = 0.7503 | 0.01794
398.15 K, 3609.9 kPa, x1 = 0.5011 | 0.0165
398.15 K, 3624.9 kPa, x1 = 0.7503 | 0.01817
398.15 K, 3822.7 kPa, x1 = 0.7503 | 0.01844
398.15 K, 3842.8 kPa, x1 = 0.5011 | 0.01681
398.15 K, 3992.9 kPa, x1 = 0.7503 | 0.01868
398.15 K, 4062.4 kPa, x1 = 0.5011 | 0.01705
398.15 K, 4225.4 kPa, x1 = 0.7503 | 0.01902
398.15 K, 4329.6 kPa, x1 = 0.5011 | 0.01744
398.15 K, 4523.9 kPa, x1 = 0.7503 | 0.01947
398.15 K, 4652.3 kPa, x1 = 0.5011 | 0.01792
398.15 K, 4690.7 kPa, x1 = 0.7503 | 0.01983
398.15 K, 4804.6 kPa, x1 = 0.7503 | 0.02002
398.15 K, 5014.1 kPa, x1 = 0.5011 | 0.01853
